Source: patent publication US10836758B2, “Acyl sulfonamide NaV1.7 inhibitors” (BRISTOL-MYERS SQUIBB COMPANY, priority 2016, dated 2020)

Target: NaV1.7 (Homo sapiens (Human), UniProt Q15858)
Test: NaV1.7 IC50 of Table 1 (IonWorks Barracuda population patch clamp or ligand binding assay; table does not say which)
Type: cell-based
Conditions: HEK 293 cells expressing NaV1.7
Experimental: Ion Works Barracuda population patch clamp (PPC). PPC measurements were performed using an IonWorks Barracuda instrument (Molecular Devices Corporation, Union City, Calif.) using either PatchPlate™ PPC substrates (Molecular Devices Corporation) with 64 apertures per well. The ability to average currents from 64 recordings from each well greatly improves data consistency and recording success rates in the measurement of NaV1.7 mediated ionic currents. Calculated leak current was digitally subtracted from the total cell NaV1.7 current for each sample point acquired.
NaV1.7 currents were elicited by a voltage clamp protocol designed to bias the NaV1.7 channels to their inactivated state as follows. […] This was followed by a relatively brief hyperpolarization to −100 mv for 300 ms, then a 20 msec test pulse to −20 mV to elicit the NaV1.7 current used to measure the pharmacology of all test compounds. Compounds were incubated for 600 sec between the pre- and post-compound reads. […] The same solutions were used to record NaV1.5 currents, with the following voltage clamp protocol. NaV1.5 currents were elicited by a voltage clamp protocol designed to bias the NaV1.5 channels to their inactivated state as follows. […] This was followed by a relatively brief hyperpolarization to −100 mv for 30 ms, then a 20 msec test pulse to −10 mV to elicit the NaV1.5 current used to measure the pharmacology of all test compounds.
HEK 293 cells expressing NaV1.7 and NaV1.5 channels, were used (Essen Biosciences, Ann Arbor, Mich.). […] Cells were grown to 70% to 90% confluence in a flask and removed from the incubator (37° C., 5% CO2) 1 to 3 days after plating. Growth medium was aspirated from the culture flasks. […] Next a total of 2 mL TrypLE (Gibco) solution was added, and the flasks containing cells were sat for 3 min at RT, after which, the cells became visibly rounded and were easily dislodged from the bottom of the flask with a few brief taps on a solid surface. A total of 8 mL of media was added to the flask to inactivate the TrypLE, and the mixture was centrifuged at 910 rpm for 4 min. The cell supernatant was decanted, and the cell pellets were resuspended in 5-6 mL of external solution followed by gentle triturations using a 10 ml pipette, and transferred to a 15 ml conical tube and immediately brought to the IW Barracuda instrument.
Peak membrane currents were analyzed with IW Barracuda software and exported to Excel for further analysis. Concentration response curve fitting was performed with BMS in-house software. IC50 values were obtained by fits of the Hill equation to the average percent inhibition data plotted versus compound concentration. […] Results are reported in Table 1 (NaV1.7 Barra IC50 in nM and NaV1.5 Barra IC50 in nM).
hNaV1.7 binding affinities were determined with a filtration binding assay using purified membranes from HEK293 cells stably expressing hNaV1.7. HEK293 cells from a 10-stack cell culture flask (approximately 10^10 cells) were dissociated, frozen, and stored at −80° C. To prepare membranes, the frozen cell pellet was thawed and suspended in 6 ml hypotonic lysis buffer (50 mM HEPES, 0.1% mammalian protease inhibitor cocktail). 1 ml of resuspended cells was added to an additional 6 ml of lysis buffer and homogenized with 30 strokes of a tight pestle in a glass homogenizer. Homogenate was centrifuged at 1000×g for 10 minutes at 4° C. and the resulting supernatant was further centrifuged at 38,500×g for 60 minutes at 4° C. The resulting pellet was resuspended in binding buffer (50 mM HEPES, 130 mM NaCl, 5.4 mM KCl, 0.8 mM MgCl2, 5 mM glucose, pH 7.4) and needle homogenized with a 25 gauge needle. Protein concentration was determined with a BCA protein assay. Purified membranes were aliquoted, flash frozen in an ethyl alcohol dry ice bath, and stored at −80° C.

NaV1.7, sequence (Q15858 whole entry): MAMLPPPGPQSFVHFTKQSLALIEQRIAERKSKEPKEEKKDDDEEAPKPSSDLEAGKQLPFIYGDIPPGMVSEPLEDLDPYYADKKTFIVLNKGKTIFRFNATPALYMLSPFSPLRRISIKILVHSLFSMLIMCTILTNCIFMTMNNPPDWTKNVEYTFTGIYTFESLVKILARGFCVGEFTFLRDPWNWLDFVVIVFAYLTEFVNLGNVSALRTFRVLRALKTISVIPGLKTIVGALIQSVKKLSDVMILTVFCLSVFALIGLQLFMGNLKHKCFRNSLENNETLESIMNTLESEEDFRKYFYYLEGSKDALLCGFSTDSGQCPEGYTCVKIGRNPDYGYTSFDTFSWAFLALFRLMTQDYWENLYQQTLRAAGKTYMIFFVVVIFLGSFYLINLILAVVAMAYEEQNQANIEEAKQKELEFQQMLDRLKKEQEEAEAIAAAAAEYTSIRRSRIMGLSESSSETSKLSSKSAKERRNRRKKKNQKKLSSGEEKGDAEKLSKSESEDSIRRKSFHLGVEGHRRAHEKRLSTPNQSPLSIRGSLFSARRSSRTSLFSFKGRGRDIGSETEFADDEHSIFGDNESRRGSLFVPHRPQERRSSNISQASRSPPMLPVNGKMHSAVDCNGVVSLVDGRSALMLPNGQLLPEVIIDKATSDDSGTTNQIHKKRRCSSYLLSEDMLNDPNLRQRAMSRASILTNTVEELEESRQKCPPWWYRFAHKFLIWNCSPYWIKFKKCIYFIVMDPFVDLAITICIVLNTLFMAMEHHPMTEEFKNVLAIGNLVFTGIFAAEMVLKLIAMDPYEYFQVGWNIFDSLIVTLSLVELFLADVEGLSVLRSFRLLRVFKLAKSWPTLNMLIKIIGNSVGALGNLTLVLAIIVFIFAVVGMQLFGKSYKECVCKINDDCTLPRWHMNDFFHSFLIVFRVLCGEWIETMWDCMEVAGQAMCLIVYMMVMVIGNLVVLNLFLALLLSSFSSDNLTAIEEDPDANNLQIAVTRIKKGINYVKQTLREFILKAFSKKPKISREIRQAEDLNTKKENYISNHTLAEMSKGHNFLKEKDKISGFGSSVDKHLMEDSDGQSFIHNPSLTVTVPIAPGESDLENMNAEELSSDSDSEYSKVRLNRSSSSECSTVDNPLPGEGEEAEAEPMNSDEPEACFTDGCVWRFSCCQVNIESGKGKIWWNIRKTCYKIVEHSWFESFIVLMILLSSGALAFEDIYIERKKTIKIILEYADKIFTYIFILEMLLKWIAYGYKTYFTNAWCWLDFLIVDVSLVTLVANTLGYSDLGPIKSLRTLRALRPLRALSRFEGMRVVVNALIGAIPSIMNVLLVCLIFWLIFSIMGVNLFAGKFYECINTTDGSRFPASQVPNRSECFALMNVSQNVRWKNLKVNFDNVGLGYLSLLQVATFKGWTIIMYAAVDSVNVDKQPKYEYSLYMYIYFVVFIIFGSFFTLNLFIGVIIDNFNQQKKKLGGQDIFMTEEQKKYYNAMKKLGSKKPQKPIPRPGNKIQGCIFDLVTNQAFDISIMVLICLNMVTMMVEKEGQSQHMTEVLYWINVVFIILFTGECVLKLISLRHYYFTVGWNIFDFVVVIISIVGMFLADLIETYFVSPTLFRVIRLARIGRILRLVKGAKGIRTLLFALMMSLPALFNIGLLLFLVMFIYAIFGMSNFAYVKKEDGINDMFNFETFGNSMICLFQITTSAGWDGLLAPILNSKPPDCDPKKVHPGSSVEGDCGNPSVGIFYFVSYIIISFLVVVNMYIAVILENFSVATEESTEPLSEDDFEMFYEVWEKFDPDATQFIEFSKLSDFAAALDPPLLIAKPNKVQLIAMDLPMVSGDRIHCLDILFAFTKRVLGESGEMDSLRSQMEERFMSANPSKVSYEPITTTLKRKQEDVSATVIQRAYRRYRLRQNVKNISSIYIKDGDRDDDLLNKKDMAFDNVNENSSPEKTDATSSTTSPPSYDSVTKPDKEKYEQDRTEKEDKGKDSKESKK

Row | SMILES | IC50 [µM]
1 | O=S(=O)(Nc1nccs1)c1cc(Cl)c(N[C@H]2CC[C@@H](O)CC2)cc1F [Example 36, 5-Chloro-2-fluoro-4-(((1s,4s)-4-hydroxycyclohexyl)amino)-N-(thiazol-2-yl)benzenesulfonamide] | 0.21
2 | O=S(=O)(Nc1nccs1)c1cc(Cl)c(NCCC2CCCO2)cc1F (stereo not shown) [Example 39, 5-Chloro-2-fluoro-4-((2-(tetrahydrofuran-2-yl)ethyl)amino)-N-(thiazol-2-yl)benzenesulfonamide] | 0.221
3 | CN1C(C)(C)CC(Nc2cc(F)c(S(=O)(=O)Nc3nccs3)cc2Cl)CC1(C)C [Example 42, 5-Chloro-2-fluoro-4-((1,2,2,6,6-pentamethylpiperidin-4-yl)amino)-N-(thiazol-2-yl)benzenesulfonamide] | 0.286
4 | O=S(=O)(Nc1nccs1)c1cc(Cl)c(NC[C@@H]2CCCNC2)cc1F [Example 43, (R)-5-Chloro-2-fluoro-4-((piperidin-3-ylmethyl)amino)-N-(thiazol-2-yl)benzenesulfonamide] | 0.272
5 | O=S(=O)(Nc1ncns1)c1cc(F)c(OCCC2(c3ccc(Cl)cc3)CCNCC2)cc1F [Example 44, 4-(2-(4-(4-Chlorophenyl)piperidin-4-yl)ethoxy)-2,5-difluoro-N-(1,2,4-thiadiazol-5-yl)benzenesulfonamide] | 0.124
6 | O=S(=O)(Nc1ncns1)c1cc(Cl)c(OCCC2(c3ccc(Cl)cc3)CCNCC2)cc1F [Example 45, 5-Chloro-4-(2-(4-(4-chlorophenyl)piperidin-4-yl)ethoxy)-2-fluoro-N-(1,2,4-thiadiazol-5-yl)benzenesulfonamide] | 0.039
7 | O=S(=O)(Nc1ncns1)c1cc(F)c(OCCC2(c3ccc(Cl)c(F)c3)CCNCC2)cc1F [Example 46, 4-(2-(4-(4-Chloro-3-fluorophenyl)piperidin-4-yl)ethoxy)-2,5-difluoro-N-(1,2,4-thiadiazol-5-yl)benzenesulfonamide] | 0.11
8 | O=S(=O)(Nc1ncns1)c1cc(Cl)c(OCCC2(c3ccc(Cl)c(F)c3)CCNCC2)cc1F [Example 47, 5-Chloro-4-(2-(4-(4-chloro-3-fluorophenyl)piperidin-4-yl)ethoxy)-2-fluoro-N-(1,2,4-thiadiazol-5-yl)benzenesulfonamide] | 0.033
9 | O=S(=O)(Nc1ncns1)c1cc(F)c(OCCC2(c3ccccc3)CCC(O)CC2)cc1F (stereo not shown) [Example 48, 2,5-Difluoro-4-(2-(4-hydroxy-1-phenylcyclohexyl)ethoxy)-N-(1,2,4-thiadiazol-5-yl)benzenesulfonamide] | 0.117
10 | NC1CCC(CCOc2cc(F)c(S(=O)(=O)Nc3ncns3)cc2F)CC1 (stereo not shown) [Example 60, 4-(2-(4-Aminocyclohexyl)ethoxy)-2,5-difluoro-N-(1,2,4-thiadiazol-5-yl)benzenesulfonamide] | 0.367

Results, then the molecule that gave them:

Row | IC50 [µM] | SMILES
11 | 0.068 | CNC1CCC(COc2cc(F)c(S(=O)(=O)Nc3ncns3)cc2F)(Cc2ccc(Cl)c(F)c2)CC1 (stereo not shown) [Example 63, 4-((1-(4-Chloro-3-fluorobenzyl)-4-(methylamino)cyclohexyl)methoxy)-2,5-difluoro-N-(1,2,4-thiadiazol-5-yl)benzenesulfonamide]
12 | 0.285 | O=S(=O)(Nc1ncns1)c1cc(F)c(OCC2(Cc3ccc(Cl)c(F)c3)CCC(O)CC2)cc1F (stereo not shown) [Example 64, 4-((1-(4-chloro-3-fluorobenzyl)-4-hydroxycyclohexyl)methoxy)-2,5-difluoro-N-(1,2,4-thiadiazol-5-yl)benzenesulfonamide]
13 | 0.098 | O=S(=O)(Nc1nccs1)c1cc(Cl)c(NC2CCC3CNCC32)cc1F (stereo not shown) [Example 65, 5-chloro-2-fluoro-4-((octahydrocyclopenta[c]pyrrol-4-yl)amino)-N-(thiazol-2-yl)benzenesulfonamide]
14 | 0.291 | O=S(=O)(Nc1nccs1)c1cc(Cl)c(N2CCCC(C3CCNCC3)C2)cc1F (stereo not shown) [Example 66, 4-([3,4′-bipiperidin]-1-yl)-5-chloro-2-fluoro-N-(thiazol-2-yl)benzenesulfonamide]
15 | 0.267 | O=S(=O)(Nc1nccs1)c1cc(Cl)c(N2CCC3CCNCC3C2)cc1F (stereo not shown) [Example 67, 5-chloro-2-fluoro-4-(octahydro-2,7-naphthyridin-2(1H)-yl)-N-(thiazol-2-yl)benzenesulfonamide]
16 | 0.138 | COCCN1CCCC1CNc1cc(F)c(S(=O)(=O)Nc2nccs2)cc1Cl (stereo not shown) [Example 68, 5-chloro-2-fluoro-4-(((1-(2-methoxyethyl)pyrrolidin-2-yl)methyl)amino)-N-(thiazol-2-yl)benzenesulfonamide]
17 | 0.568 | COCC1CCN(c2cc(F)c(S(=O)(=O)Nc3nccs3)cc2Cl)C1 (stereo not shown) [Example 69, 5-chloro-2-fluoro-4-(3-(methoxymethyl)pyrrolidin-1-yl)-N-(thiazol-2-yl)benzenesulfonamide]
18 | 0.806 | O=S(=O)(Nc1nccs1)c1cc(Cl)c(N2CCC(CO)C2)cc1F (stereo not shown) [Example 70, 5-chloro-2-fluoro-4-(3-(hydroxymethyl)pyrrolidin-1-yl)-N-(thiazol-2-yl)benzenesulfonamide]
19 | 0.041 | O=S(=O)(Nc1nccs1)c1cc(Cl)c(NCCC2CCCCN2O)cc1F (stereo not shown) [Example 75, 5-chloro-2-fluoro-4-((2-(1-hydroxypiperidin-2-yl)ethyl)amino)-N-(thiazol-2-yl)benzenesulfonamide]
